In the CheMixHub viscosity set:

Experiment: xn = mol fraction of the nth substance listed

CC(=O)N1CCOCC1 + CCCO
viscosity [mPa·s], 101 kPa
Settings | 293.15 K | 303.15 K | 313.15 K | 323.15 K
x1 = 0.0542 | 3.211 | 2.607 | 2.089 | 1.678
x1 = 0.1279 | 4.268 | 3.591 | 2.958 | 2.472
x1 = 0.2156 | 5.382 | 4.614 | 3.842 | 3.268
x1 = 0.2811 | 6.079 | 5.246 | 4.369 | 3.728
x1 = 0.3166 | 6.397 | 5.529 | 4.598 | 3.925
x1 = 0.3902 | 6.922 | 5.978 | 4.928 | 4.183
x1 = 0.4533 | 7.294 | 6.294 | 5.142 | 4.331
x1 = 0.5022 | 7.478 | 6.414 | 5.189 | 4.331
x1 = 0.5437 | 7.679 | 6.578 | 5.289 | 4.388
x1 = 0.5983 | 7.857 | 6.703 | 5.329 | 4.375
x1 = 0.6341 | 7.889 | 6.699 | 5.267 | 4.277
x1 = 0.6883 | 8.018 | 6.776 | 5.259 | 4.214
x1 = 0.7442 | 8.069 | 6.769 | 5.161 | 4.062
x1 = 0.7912 | 8.099 | 6.748 | 5.069 | 3.922
x1 = 0.8542 | 8.178 | 6.766 | 4.986 | 3.776
x1 = 0.9165 | 8.328 | 6.851 | 4.972 | 3.702
x1 = 0.9776 | 8.508 | 7.001 | 5.093 | 3.823

CCCCCCCC[n+]1ccn(C)c1.F[B-](F)(F)F + COC(C)=O
Settings | viscosity [mPa·s]
298.15 K, 101 kPa, x1 = 0.7036 | 69.93

Cc1c[nH]cn1 + c1ccccc1
viscosity [mPa·s], 101 kPa
Settings | 303.15 K | 323.15 K
x1 = 0.003559 | 0.568 | –
x1 = 0.007082 | 0.584 | –
x1 = 0.02102 | 0.631 | 0.479
x1 = 0.02167 | 0.636 | 0.48
x1 = 0.04045 | 0.729 | 0.533
x1 = 0.04194 | 0.748 | 0.543
x1 = 0.04196 | 0.749 | –
x1 = 0.05112 | 0.796 | 0.574
x1 = 0.08708 | 1.004 | –
x1 = 0.1079 | 1.123 | –
x1 = 0.1551 | 1.496 | –
x1 = 0.2018 | 1.869 | –
x1 = 0.2491 | 2.344 | –

CN(C)CCCO + NCCCO
viscosity [mPa·s], 100 kPa
Settings | x2 = 0.1 | x2 = 0.1998 | x2 = 0.2997 | x2 = 0.4008 | x2 = 0.5 | x2 = 0.5024 | x2 = 0.6004 | x2 = 0.7021 | x2 = 0.7992 | x2 = 0.9007
293.15 K | 8.883 | 10.61 | 12.71 | 15.1 | 18.49 | 18.49 | 21.41 | 24.67 | 29.63 | 34.66
303.15 K | 6.062 | 7.04 | 8.322 | 9.824 | 11.73 | 11.73 | 13.48 | 15.36 | 18.09 | 20.64
313.15 K | 4.35 | 5.099 | 5.838 | 6.628 | 7.819 | 7.819 | 8.782 | 9.908 | 11.62 | 13.22
323.15 K | 3.23 | 3.72 | 4.206 | 4.668 | 5.389 | 5.389 | 6.034 | 6.779 | 7.862 | 8.889

CC(O)CN(C)C (stereo not drawn) + NCc1ccccc1
viscosity [mPa·s], 101 kPa
Settings | x1 = 0.1003 | x1 = 0.1998 | x1 = 0.3 | x1 = 0.4001 | x1 = 0.5002 | x1 = 0.5999 | x1 = 0.7 | x1 = 0.8 | x1 = 0.8997
293.15 K | 1.87 | 1.91 | 1.92 | 1.91 | 1.88 | 1.84 | 1.78 | 1.7 | 1.6
303.15 K | 1.5 | 1.51 | 1.51 | 1.5 | 1.48 | 1.44 | 1.39 | 1.33 | 1.25
313.15 K | 1.23 | 1.23 | 1.22 | 1.21 | 1.18 | 1.14 | 1.1 | 1.05 | 1
323.15 K | 1.06 | 1.05 | 1.03 | 1.01 | 0.98 | 0.95 | 0.91 | 0.87 | 0.83

O=[N+]([O-])c1ccccc1O + Nc1ccccc1
viscosity [mPa·s], 101 kPa
Settings | x1 = 0.07555 | x1 = 0.1616 | x1 = 0.246 | x1 = 0.3265 | x1 = 0.4134 | x1 = 0.5065 | x1 = 0.5908 | x1 = 0.6928 | x1 = 0.7919 | x1 = 0.878
303.15 K | 2.972 | 2.863 | 2.805 | 2.802 | 2.828 | 2.881 | 2.952 | 3.068 | 3.225 | –
313.15 K | 2.322 | 2.257 | 2.224 | 2.215 | 2.23 | 2.272 | 2.328 | 2.415 | 2.515 | 2.61

CC1CCCCC1=O (stereo not drawn) + CNC=O
viscosity [mPa·s], 100 kPa
Settings | x1 = 0.0925 | x1 = 0.1835 | x1 = 0.2805 | x1 = 0.3919 | x1 = 0.4985 | x1 = 0.5995 | x1 = 0.6901 | x1 = 0.7921 | x1 = 0.8995
303.15 K | 1.655 | 1.722 | 1.79 | 1.865 | 1.934 | 1.997 | 2.052 | 2.111 | 2.171
308.15 K | 1.541 | 1.614 | 1.689 | 1.771 | 1.847 | 1.917 | 1.978 | 2.045 | 2.111
313.15 K | 1.439 | 1.518 | 1.597 | 1.684 | 1.766 | 1.842 | 1.909 | 1.982 | 2.053

CC(=O)N(C)C + CCCO
viscosity [mPa·s]
Settings | 298.15 K | 303.15 K | 313.15 K
100 kPa, x1 = 0.0535 | 1.767 | – | 1.29
100 kPa, x1 = 0.1052 | 1.618 | – | 1.206
100 kPa, x1 = 0.2053 | 1.423 | – | 1.093
100 kPa, x1 = 0.3066 | 1.285 | – | 1.008
100 kPa, x1 = 0.407 | 1.197 | – | 0.948
100 kPa, x1 = 0.5061 | 1.143 | – | 0.904
100 kPa, x1 = 0.5984 | 1.097 | – | 0.8744
100 kPa, x1 = 0.701 | 1.045 | – | 0.8402
100 kPa, x1 = 0.8014 | 0.9977 | – | 0.8138
100 kPa, x1 = 0.9025 | 0.9648 | – | 0.7886
100 kPa, x1 = 0.9583 | 0.944 | – | 0.7749
101 kPa, x1 = 0.0966 | – | 1.47 | –
101 kPa, x1 = 0.1975 | – | 1.293 | –
101 kPa, x1 = 0.2992 | – | 1.193 | –
101 kPa, x1 = 0.3986 | – | 1.103 | –
101 kPa, x1 = 0.4894 | – | 1.048 | –
101 kPa, x1 = 0.6025 | – | 1 | –
101 kPa, x1 = 0.697 | – | 0.963 | –
101 kPa, x1 = 0.7955 | – | 0.93 | –
101 kPa, x1 = 0.9012 | – | 0.898 | –

CC(=O)N(C)C + CCCCCO
viscosity [mPa·s], 100 kPa
Settings | 298.15 K | 313.15 K
x1 = 0.0569 | 3.02 | 2.057
x1 = 0.1068 | 2.69 | 1.887
x1 = 0.2009 | 2.246 | 1.634
x1 = 0.3051 | 1.92 | 1.419
x1 = 0.4017 | 1.68 | 1.283
x1 = 0.4989 | 1.498 | 1.159
x1 = 0.6011 | 1.358 | 1.065
x1 = 0.7029 | 1.223 | 0.973
x1 = 0.7966 | 1.121 | 0.895
x1 = 0.8962 | 1.041 | 0.833
x1 = 0.9519 | 0.981 | 0.8

CCCCCCCCCO + CCC(C)=O
viscosity [mPa·s], 100 kPa
Settings | x2 = 0.0834 | x2 = 0.1589 | x2 = 0.2407 | x2 = 0.3508 | x2 = 0.4403 | x2 = 0.5589 | x2 = 0.6502 | x2 = 0.7393 | x2 = 0.8501 | x2 = 0.9393
293.15 K | 8.68 | 6.91 | 5.59 | 4.29 | 3.39 | 2.38 | 1.83 | 1.33 | 0.78 | 0.56
303.15 K | 6.38 | 5.06 | 3.89 | 2.91 | 2.25 | 1.52 | 0.98 | 0.76 | 0.53 | 0.46
313.15 K | 4.39 | 3.52 | 2.8 | 2.07 | 1.61 | 1.21 | 0.98 | 0.78 | 0.55 | 0.42
323.15 K | 3.27 | 2.67 | 2.14 | 1.56 | 1.25 | 0.92 | 0.72 | 0.59 | 0.47 | 0.38

C=CCn1cc[n+](C)c1.O=S(=O)([N-]S(=O)(=O)C(F)(F)F)C(F)(F)F + CCCO
Settings | viscosity [mPa·s]
313.15 K, 100 kPa, x1 = 0.8974 | 15.85

CC(N)=O + O=C1CCCCCN1
101 kPa, x2 = 0.5
Settings | viscosity [mPa·s]
303.1 K | 66.67
313.1 K | 32.87
323.1 K | 22.69

O=[N+]([O-])c1ccccc1O + c1ccc2ncccc2c1
viscosity [mPa·s], 101 kPa
Settings | 303.15 K | 313.15 K
x1 = 0.1011 | 3.361 | 2.66
x1 = 0.2021 | 3.772 | 2.928
x1 = 0.2913 | 4.125 | 3.16
x1 = 0.3982 | 4.495 | 3.375
x1 = 0.4731 | 4.68 | 3.465
x1 = 0.5638 | 4.72 | 3.47
x1 = 0.6538 | 4.595 | 3.41
x1 = 0.7624 | 4.355 | 3.25
x1 = 0.8131 | 4.22 | 3.151
x1 = 0.8588 | 4.09 | 3.059
x1 = 0.9056 | 3.95 | 2.955
x1 = 0.9521 | – | 2.855

CC(=O)OCCC1CCCCC1 + CCCCCCCCCCO
viscosity [mPa·s], 101 kPa
Settings | 300 K | 310 K | 320 K
x2 = 0.1066 | 2.65 | 2.14 | 1.77
x2 = 0.1534 | 2.74 | 2.2 | 1.82
x2 = 0.2863 | 2.94 | 2.34 | 1.91
x2 = 0.337 | 3.14 | 2.46 | 2.01
x2 = 0.4105 | 3.47 | 2.72 | 2.15
x2 = 0.4983 | 3.91 | 3.02 | 2.41
x2 = 0.5476 | 4.25 | 3.26 | 2.56
x2 = 0.6306 | 4.92 | 3.76 | 2.93
x2 = 0.702 | 5.57 | 4.15 | 3.18
x2 = 0.7382 | 5.93 | 4.4 | 3.37
x2 = 0.8402 | 7.22 | 5.25 | 3.94
x2 = 0.9332 | 8.92 | 6.35 | 4.67

O=[N+]([O-])c1ccccc1O + CN1CCC[C@H]1c1cccnc1
viscosity [mPa·s], 101.33 kPa
Settings | 308.15 K | 323.15 K
x2 = 0.102 | – | 2.724
x2 = 0.1563 | 5.072 | 3.073
x2 = 0.2019 | 5.996 | 3.527
x2 = 0.302 | 7.601 | 4.122
x2 = 0.3189 | 7.832 | 4.24
x2 = 0.3345 | 8.011 | 4.344
x2 = 0.3506 | 8.004 | 4.389
x2 = 0.3662 | 7.982 | 4.388
x2 = 0.4077 | 7.889 | 4.362
x2 = 0.5005 | 7.375 | 4.12
x2 = 0.603 | 6.569 | 3.83
x2 = 0.6988 | 5.676 | 3.421
x2 = 0.7988 | 4.612 | 2.927
x2 = 0.8937 | 3.86 | 2.523

O=[N+]([O-])c1ccccc1O + CCCCCOC(C)=O
Settings | viscosity [mPa·s]
298.15 K, 101 kPa, x1 = 0.5 | 1.051
